According to patent US10000771B2, “Nuclear targeting sequences” (Yeda Research and Development Co. Ltd., priority 2007, dated 2018):
Ends that are not written are not given here. 2GFP = dimer of GFP proteins

Experiments:
[1] = system: Nup153c; test: Interaction with recombinant His-Nup153c; format: binding; conditions: immunoprecipitated ERK2 incubated with 0.5 μg recombinant His-Nup153c
Experimental: FIGS. 19A-19C are autoradiographs illustrating that phospho-SPS interacts with importin-7 and releases Nup153c binding without involvment of importin-β. […]. Interaction of ERK2 with Importin-7 is enhanced by EGF stimulation and EPE mutation. HeLa cells overexpressing WT-ERK (WT), ERK-APA (APA), ERK-EPE (EPE) or GFP were serum starved and treated with EGF (50 ng/ml, 10 min). The extracts of the treated cells were then subjected to coimmunoprecipitation using A/G beads pre-conjugated with anti GFP Ab and mild washes. The coimmunoprecipitated importin-7 (first panel) and importin-β (third panel), as well as their loading amounts (panels 2 and 4 respectively) were determined by WB using anti importin-7 (αImp7) and importin-β (αImpβ) Abs. The equal amount of immunoprecipitated ERKs was determined with anti GFP (αGFP; IP) Ab. FIG. 19B. Interaction of 2GFP-SPS and its mutants with importin-7. HeLa cells overexpressing 2GFP, 2GFP-SPS, 2GFP-APA and 2GFP-EPE constructs were subjected to coimmunoprecipitation as described in FIG. 19A (without EGF stimulation). FIG. 19C. Interaction of NUP153 with WTERK2 and its APA and EPE mutants. NUP153c is elevated in APA-ERK2, but reduced in EPE-ERK2. Immunoprecipitated and stringently washed WT-ERK2 (WT), APA-ERK2 (APA) or ERK2 from […] cells pre-treated with or without TPA (250 nM, 15 min) were incubated with 0.5 μg recombinant His-Nup153c. […]

[2] = system: endogenous ERKs; test: Effect of 2GFP chimeras on nuclear translocation of endogenous ERKs; format: cell-based; conditions: CHO cells overexpressing the chimera, TPA 250 nM, 15 min
Experimental: FIGS. 10A-10X illustrate the effects of the 2GFP chimeras on the nuclear translocation of endogenous ERKs. CHO cells overexpressing 2GFP, 2GFP-SPS, 2GFP-APA and 2GFP-EPE were serum starved and treated with or without TPA (250 nM, 15 min). Subsequently, the cells were fixed and stain with anti-ERK2 (C-14) Ab and with DAPI.
Immunofluorescence Microscopy. Cells were fixed (30 min in 3% paraformaldehyde in PBS or 10 min with ice-cold methanol), followed by 5-min permeabilization with 0.2% Triton X-100 in PBS (23° C.). The fixed cells were sequentially incubated with the appropriate Abs (45 min) followed by rhodamine-conjugated secondary Abs (45 min) and DAPI. Slides were visualized using a fluorescence microscope (Nikon, Japan) at 400× magnifications.

WT-ERK2: wild-type ERK2 fused to GFP, prepared in pEGFP C1 [reference compound]
interaction with Nup153 [1]: interacts with Nup153

2GFP-SPS: 2GFP with the 19 amino acid stretch containing the SPS of ERK2 (SEQ ID NO: 6) fused to its C terminus (2GFP-LDQLNHILGILGSPSQEDL)
inhibition of TPA-induced translocation of endogenous ERKs [2]: inhibited
